Tests used:
[1] = target: T1, Acetylcholinesterase (AChE) (Electrophorus electricus, UniProt O42275)
Method: (§1) AChE was used to carry out the inhibitory assay using Ellman’s method [23] with modifications. A 0.05 M phosphate buffer, pH 8.0, was used in this protocol. Additionally, 60 µL of the herbal extract was mixed with the same volume of 0.5 mM enzyme solution and 120 µL of phosphate buffer, and kept at 25 °C for 15 min in a flat-bottom 96-well plate. Agent 5, 5′-dithiobis-2-nitrobenzoic acid (DTNB, 30 µL of 0.003 M) and 40 µL of 0.002 M acetylthiocholine iodide (ATCI) were added into the mixture to start the reaction. The reaction was maintained at 25 °C for 10 min before the absorbance was measured at the wavelength of 415 nm. For the control group, 60 µL of phosphate buffer was used instead of 60 µL of the herbal extract solution and the same condition was used for the calculation of enzyme inhibition activity using the following equation:AChE inhibition (%) = (AC − AE)/AC × 100, where AE is the absorbance value measured at 415 nm of the reaction containing herbal extract and enzyme, while AC is the absorbance value at 415 nm of the reaction containing enzyme and phosphate buffer instead of the herbal extract. The samples and berberine chloride (commercial AChE inhibitor) were dissolved in dimethylsulfoxide and eluted at various concentrations using a 0.05 M phosphate buffer and then used for the tests.

[2] = target: T1, Acetylcholinesterase (AChE); test: biochemical
Method: as §1

[3] = target: T1, Acetylcholinesterase (AChE); test: AChE enzyme inhibition assay (Ellman's method, modified); conditions: IC50, different parts of ELC extracted by MeOH (Table 2)
Method: as §1

[4] = tested on: HuCC-T1 cancer cells; conditions: cited from earlier work
[5] = tested on: tumor cell lines; conditions: EGCG from green tea at 40–200 microM; cited from earlier work
[6] = tested on: WI38 normal cells; conditions: EGCG from green tea at 40–200 microM; cited from earlier work
[7] = tested on: 293T normal cells; conditions: cited from earlier work
[8] = tested on: normal cells; conditions: cited from earlier work; for effect on normal cells: cause death for various cancer cells
[9] = tested on: bronchial epithelial 16HBE normal cells; conditions: cited from earlier work
[10] = adjuvant chemotherapeutic agents; cited from earlier work

T1 sequence (O42275 24-633): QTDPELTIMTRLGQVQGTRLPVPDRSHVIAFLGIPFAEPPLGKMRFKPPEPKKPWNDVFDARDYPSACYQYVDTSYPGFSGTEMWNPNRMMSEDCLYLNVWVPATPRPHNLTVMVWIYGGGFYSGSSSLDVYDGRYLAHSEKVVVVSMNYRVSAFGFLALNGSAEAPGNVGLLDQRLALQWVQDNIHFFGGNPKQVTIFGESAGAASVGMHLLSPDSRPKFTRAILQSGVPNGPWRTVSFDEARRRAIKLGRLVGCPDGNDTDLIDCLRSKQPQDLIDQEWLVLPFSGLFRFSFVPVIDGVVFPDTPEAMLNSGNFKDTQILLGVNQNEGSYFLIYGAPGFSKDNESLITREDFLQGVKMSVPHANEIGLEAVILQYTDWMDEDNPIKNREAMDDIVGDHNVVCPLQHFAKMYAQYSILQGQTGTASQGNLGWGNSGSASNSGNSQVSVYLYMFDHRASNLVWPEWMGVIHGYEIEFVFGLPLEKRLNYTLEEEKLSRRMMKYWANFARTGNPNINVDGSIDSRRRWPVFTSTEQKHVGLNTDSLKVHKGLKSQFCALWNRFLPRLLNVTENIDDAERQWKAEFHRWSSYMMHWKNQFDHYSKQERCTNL

Compound: COc1ccc2cc3[n+](cc2c1OC)CCc1cc2c(cc1-3)OCO2 [Berberine chloride, berberine chloride]
- inhibition [1]: 98.2 ± 1.8%
- IC50 [2]: 934 µM
- IC50 [3]: 972 µM

Compound: O=C(O[C@@H]1Cc2c(O)cc(O)cc2O[C@@H]1c1cc(O)c(O)c(O)c1)c1cc(O)c(O)c(O)c1 [Compd 12, epigallocatechin gallate]
- toxicity on HuCC-T1 cancer cells [4]: toxic
- death of tumor cell lines [5]: significant death
- WI38 normal cells growth affected [6]: 1%
- viability of 293T normal cells [7]: safe

Compound: Oc1cc(O)c2c(c1)O[C@H](c1ccc(O)c(O)c1)[C@H](O)C2 [Compd 13, epicatechin]
- effect on normal cells [8]: no effect on normal cells

Compound: O=C(O[C@@H]1Cc2c(O)cc(O)cc2O[C@@H]1c1ccc(O)c(O)c1)c1cc(O)c(O)c(O)c1 [Compd 14, epicatechin gallate]
- effect on normal cells [8]: no effect on normal cells

Compound: O=c1cc(-c2ccc(O)cc2)oc2c([C@@H]3O[C@H](CO)[C@@H](O)[C@H](O)[C@H]3O)c(O)cc(O)c12 [Compd 15, vitexin]
- effect on bronchial epithelial 16HBE normal cells [9]: non-effect

Compound: C[C@@H]1O[C@@H](OC[C@H]2O[C@@H](Oc3c(-c4ccc(O)c(O)c4)oc4cc(O)cc(O)c4c3=O)[C@H](O)[C@@H](O)[C@@H]2O)[C@H](O)[C@H](O)[C@H]1O [Compd 17, rutin]
- toxicity and side effects via in vivo and clinical trials [10]: trivial toxicity and side effects

Compound: O=c1cc(-c2ccc(O)cc2)oc2cc(O[C@@H]3O[C@H](CO)[C@@H](O)[C@H](O)[C@H]3O)cc(O)c12 [Compd 18, apigetrin]
- toxicity and side effects via in vivo and clinical trials [10]: trivial toxicity and side effects

Compound: O=c1c(O)c(-c2cc(O)c(O)c(O)c2)oc2cc(O)cc(O)c12 [Compd 19, myricetin]
- toxicity and side effects via in vivo and clinical trials [10]: trivial toxicity and side effects

Compound: O=c1c(O)c(-c2ccc(O)c(O)c2)oc2cc(O)cc(O)c12 [Compd 20, quercetin]
- effects on normal cells [8]: no or low effects on normal cells

Compound: O=c1cc(-c2ccc(O)cc2)oc2cc(O)cc(O)c12 [Compd 21, apigenin]
- effects on normal cells [8]: no or low effects on normal cells

Reference: publication PMC10305147 (Life, 2023)
